Tests used:
[1] = system: SLE-associated genes in the kidney; test: Expression of SLE-associated genes in the kidney of SLE model mice, overall statement; assay type: in vivo; details: NZB/WF1 mice, oral, 10 weeks, Drug A 30 mg/kg twice a day, Drug B 3 mg/kg once a day, Dunnett's test vs control
Description: (§1) Actions of suppressing the expression of disease-associated genes in the kidney by the administration of 2-benzyl-5-(4-chlorophenyl)-6-[4-(methylthio)phenyl]-2H-pyridazine-3-one (hereinafter referred to as Drug A) and prednisolone (hereinafter referred to as Drug B) in combination and the administration of each drug alone were evaluated by using NZB×NZW (NZB/W)F1 mice widely known as spontaneous SLE models.
(§2) Female NZB/WF1 mice (Japan SLC, Inc.) were used as test animals.
(§3) The bodyweight of 20-week-old NZB/WF1 mice was measured. By using the body weight as an index, the mice were divided into groups through one-parameter-based block randomization so that each group becomes uniform.
(§4) Drug administration was conducted from the day after the grouping to 10 weeks thereafter. To a group for sole administration of Drug A, a dose of 30 mg/kg was orally administered, twice a day, in the morning (9:00 to 11:00) and in the evening (15:30 to 17:30). Further, to a group for sole administration of Drug B, a dose of 3 mg/kg was orally administered, once a day, in the daytime (11:30 to 13:30). On the other hand, to a group for combined administration of Drug A and Drug B, 30 mg/kg of Drug A was orally administered in the morning (9:00 to 11:00) and in the evening (15:30 to 17:30), and 3 mg/kg of Drug B was orally administered in the daytime (11:30 to 13:30).
(§5) 10 weeks after the grouping (at the time of 30 weeks old), the kidney was excised from each individual and horizontally divided into two portions. […] The mRNA expression levels of SLE-associated genes (IFN-y (probe No.: Mm00801778_m1), TNF-α (probe No.: Mm00443258_m1), IL-1β (probe No.: Mm00434228_m1), BAFF (probe No.: Mm00446347_m1), IFIT1 (probe No.: Mm00515153_m1), and IP-10 (probe No.: Mm00445235_m1)) were determined by using ABI PRISM (registered trademark) 7900 Sequence Detection System (manufactured by Applied Biosystems, Inc.) and TaqMan (registered trademark) Gene Expression Assays (manufactured by Applied Biosystems, Inc.) by Real-Time RT-PCR method. […]

[2] = system: IFIT1 mRNA in the kidney; test: IFIT1 mRNA expression in the kidney of SLE model mice (Real-Time RT-PCR); assay type: in vivo, NZB/WF1 mice; details: Drug A 30 mg/kg twice a day, Drug B 3 mg/kg once a day, oral, 10 weeks; for IFIT1 Relative index: kidney mRNA relative to control group = 1.000; for IFIT1 mRNA expression level (%): kidney, female NZB/WF1 mice, control = 100%, mean ± standard error of 10 to 11 mice
Description: as §1, §2, §3, §4
as §5, with “portions. After that, the kidney was subjected to RNase inactivation treatment that involves immersing the kidney in RNAlater (manufactured by QIAGEN GmbH) at 4° C. for 24 hours.” for “portions.”
(§6) Tables 1 to 6 and FIGS. 1 to 6 each show the mRNA expression levels of IFN-γ (Table 1, FIG. 1), TNF-α (Table 2, FIG. 2), IL-1β (Table 3, FIG. 3), BAFF (Table 4, FIG. 4), IFIT1 (Table 5, FIG. 5), and IP-10 (Table 6, FIG. 6) in the kidney in a control group, a group for sole administration of 30 mg/kg of Drug A, a group for sole administration of 3 mg/kg of Drug B, and a group for combined administration of both Drugs. […] The mRNA expression level is expressed as mean±standard error of 10 to 11 mice in each group. […]

[3] = system: IP-10 mRNA in the kidney; test: IP-10 mRNA expression in the kidney of SLE model mice (Real-Time RT-PCR); assay type: in vivo, NZB/WF1 mice; details: Drug A 30 mg/kg twice a day, Drug B 3 mg/kg once a day, oral, 10 weeks; for IP-10 Relative index: kidney mRNA relative to control group = 1.000; for IP-10 mRNA expression level (%): kidney, female NZB/WF1 mice, control = 100%, mean ± standard error of 10 to 11 mice
Description: as §1, §2, §3, §4
as §5, with “portions. After that, the kidney was subjected to RNase inactivation treatment that involves immersing the kidney in RNAlater (manufactured by QIAGEN GmbH) at 4° C. for 24 hours.” for “portions.”
as §6

[4] = system: BAFF mRNA in the kidney; test: BAFF mRNA expression in the kidney of SLE model mice (Real-Time RT-PCR); assay type: in vivo, NZB/WF1 mice; details: Drug A 30 mg/kg twice a day, Drug B 3 mg/kg once a day, oral, 10 weeks; for BAFF Relative index: kidney mRNA relative to control group = 1.000; for BAFF mRNA expression level (%): kidney, female NZB/WF1 mice, control = 100%, mean ± standard error of 10 to 11 mice
Description: as §1, §2, §3, §4
as §5, with “portions. After that, the kidney was subjected to RNase inactivation treatment that involves immersing the kidney in RNAlater (manufactured by QIAGEN GmbH) at 4° C. for 24 hours.” for “portions.”
as §6

[5] = system: IFN-γ mRNA in the kidney; test: IFN-γ mRNA expression in the kidney of SLE model mice (Real-Time RT-PCR); assay type: in vivo, NZB/WF1 mice; details: Drug A 30 mg/kg twice a day, Drug B 3 mg/kg once a day, oral, 10 weeks; for IFN-γ Relative index: kidney mRNA relative to control group = 1.000; for IFN-γ mRNA expression level (%): kidney, female NZB/WF1 mice, control = 100%, mean ± standard error of 10 to 11 mice
Description: as §1, §2, §3, §4
as §5, with “portions. After that, the kidney was subjected to RNase inactivation treatment that involves immersing the kidney in RNAlater (manufactured by QIAGEN GmbH) at 4° C. for 24 hours.” for “portions.”
as §6

[6] = system: IL-1β mRNA in the kidney; test: IL-1β mRNA expression in the kidney of SLE model mice (Real-Time RT-PCR); assay type: in vivo, NZB/WF1 mice; details: Drug A 30 mg/kg twice a day, Drug B 3 mg/kg once a day, oral, 10 weeks; for IL-1β Relative index: kidney mRNA relative to control group = 1.000; for IL-1β mRNA expression level (%): kidney, female NZB/WF1 mice, control = 100%, mean ± standard error of 10 to 11 mice
Description: as §1, §2, §3, §4
as §5, with “portions. After that, the kidney was subjected to RNase inactivation treatment that involves immersing the kidney in RNAlater (manufactured by QIAGEN GmbH) at 4° C. for 24 hours.” for “portions.”
as §6

[7] = system: TNF-α mRNA in the kidney; test: TNF-α mRNA expression in the kidney of SLE model mice (Real-Time RT-PCR); assay type: in vivo, NZB/WF1 mice; details: Drug A 30 mg/kg twice a day, Drug B 3 mg/kg once a day, oral, 10 weeks; for TNF-α Relative index: kidney mRNA relative to control group = 1.000; for TNF-α mRNA expression level (%): kidney, female NZB/WF1 mice, control = 100%, mean ± standard error of 10 to 11 mice
Description: as §1, §2, §3, §4
as §5, with “portions. After that, the kidney was subjected to RNase inactivation treatment that involves immersing the kidney in RNAlater (manufactured by QIAGEN GmbH) at 4° C. for 24 hours.” for “portions.”
as §6

Row | SMILES | action on the expression of SLE-associated genes in the kidney (in words) [1] | IFIT1 Relative index [2] | IFIT1 mRNA expression level (%) [2] [%] | IP-10 Relative index [3] | IP-10 mRNA expression level (%) [3] [%] | BAFF Relative index [4] | BAFF mRNA expression level (%) [4] [%] | IFN-γ Relative index [5] | IFN-γ mRNA expression level (%) [5] [%] | IL-1β Relative index [6] | IL-1β mRNA expression level (%) [6] [%] | TNF-α Relative index [7] | TNF-α mRNA expression level (%) [7] [%] | action on the expression of SLE-associated genes in the kidney (in words) ([1]; listed as 2-benzyl-5-(4-chlorophenyl)-6-[4-(methylthio)phenyl]-2H-pyridazine-3-one)
1 | C[C@]12C=CC(=O)C=C1CC[C@@H]1[C@@H]2[C@@H](O)C[C@@]2(C)[C@H]1CC[C@]2(O)C(=O)CO [Drug B, prednisolone, reference compound] | exhibited a tendency to suppress the expression of any gene | 0.786 | 78.6 ± 15.0 | 0.635 | 63.5 ± 9.9 | 0.722 | 72.2 ± 13.1 | 0.360 | 36.0 ± 13.1 | 0.661 | 66.1 ± 21.9 | 0.522 | 52.2 ± 13.2 | 
2 | CSc1ccc(-c2nn(Cc3ccccc3)c(=O)cc2-c2ccc(Cl)cc2)cc1 [Drug A, 2-benzyl-5-(4-chlorophenyl)-6-[4-(methylthio)phenyl]-2H-pyridazine-3-one] | exhibited no action on the expression of SLE-associated genes in the kidney of this model or exhibited only a tendency to slightly suppress the expression | 0.721 | 72.1 ± 15.6 | 0.883 | 88.3 ± 18.1 | 1.135 | 113.5 ± 13.7 | 0.857 | 85.7 ± 27.1 | 1.266 | 126.6 ± 50.3 | 0.634 | 63.4 ± 13.5 | there was not confirmed a significant action of suppressing the expression of SLE-associated genes in the kidney

Source: patent US20100120732A1, “AGENT FOR PREVENTION AND/OR TREATMENT OF SYSTEMIC LUPUS ERYTHEMATOSUS” (KOWA CO., LTD., priority 2007, published 2010)
